In article PMC5563452 (Nature chemical biology, 2017):

Legend:
TRPM2 [1] = biological target: T1, TRPM2 (Homo sapiens, UniProt O94759); test: whole-cell patch clamp; format: cell-based
TRPM2 [2] = biological target: T1, TRPM2; test: whole-cell patch clamp, HEK293 expressing hTRPM2; format: cell-based

T1 sequence (O94759 whole entry): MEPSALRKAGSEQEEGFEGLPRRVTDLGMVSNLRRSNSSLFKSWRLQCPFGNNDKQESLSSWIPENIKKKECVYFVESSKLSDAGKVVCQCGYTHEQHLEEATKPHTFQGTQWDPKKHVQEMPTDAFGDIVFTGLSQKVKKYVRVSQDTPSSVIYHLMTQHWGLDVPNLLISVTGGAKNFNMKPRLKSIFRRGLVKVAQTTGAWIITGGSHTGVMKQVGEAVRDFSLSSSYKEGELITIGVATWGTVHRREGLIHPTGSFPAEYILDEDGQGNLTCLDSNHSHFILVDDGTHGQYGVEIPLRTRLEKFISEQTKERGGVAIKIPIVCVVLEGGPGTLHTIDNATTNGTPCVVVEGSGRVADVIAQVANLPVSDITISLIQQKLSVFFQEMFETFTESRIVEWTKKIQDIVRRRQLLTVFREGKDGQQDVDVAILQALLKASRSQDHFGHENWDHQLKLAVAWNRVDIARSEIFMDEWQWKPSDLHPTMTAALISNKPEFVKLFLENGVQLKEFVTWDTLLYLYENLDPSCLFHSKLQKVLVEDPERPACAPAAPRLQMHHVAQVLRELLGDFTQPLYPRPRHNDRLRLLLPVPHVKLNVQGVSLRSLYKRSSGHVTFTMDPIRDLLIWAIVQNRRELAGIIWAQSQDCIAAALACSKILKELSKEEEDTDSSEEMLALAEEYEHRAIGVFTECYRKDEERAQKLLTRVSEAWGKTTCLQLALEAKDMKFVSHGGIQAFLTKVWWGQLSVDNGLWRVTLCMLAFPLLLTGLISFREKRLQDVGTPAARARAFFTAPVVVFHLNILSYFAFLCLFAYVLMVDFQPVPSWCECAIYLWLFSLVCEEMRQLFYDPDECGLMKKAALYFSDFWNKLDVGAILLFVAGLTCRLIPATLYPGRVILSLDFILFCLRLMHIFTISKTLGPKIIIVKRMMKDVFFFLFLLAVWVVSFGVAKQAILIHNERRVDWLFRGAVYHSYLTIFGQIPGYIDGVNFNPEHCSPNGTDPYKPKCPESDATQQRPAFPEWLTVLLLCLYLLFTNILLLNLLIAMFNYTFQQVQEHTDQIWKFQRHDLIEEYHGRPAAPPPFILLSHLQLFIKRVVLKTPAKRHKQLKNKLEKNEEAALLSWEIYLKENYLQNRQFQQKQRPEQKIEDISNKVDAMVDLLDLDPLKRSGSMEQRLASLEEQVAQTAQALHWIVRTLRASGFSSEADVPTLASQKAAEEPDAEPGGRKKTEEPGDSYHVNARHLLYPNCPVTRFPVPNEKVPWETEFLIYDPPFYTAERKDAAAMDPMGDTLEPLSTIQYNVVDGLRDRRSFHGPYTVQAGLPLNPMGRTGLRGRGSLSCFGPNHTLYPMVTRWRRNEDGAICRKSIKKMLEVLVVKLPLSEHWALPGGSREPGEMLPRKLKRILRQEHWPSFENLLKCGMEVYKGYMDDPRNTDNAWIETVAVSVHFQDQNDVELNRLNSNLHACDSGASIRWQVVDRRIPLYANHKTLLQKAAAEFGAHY

| SMILES | EC50 (TRPM2 [1]) [µM] | EC50 (TRPM2 [2]) [µM] |
| --- | --- | --- |
| Nc1ncnc2c1ncn2[C@@H]1O[C@H](COP(=O)(O)OP(=O)(O)OC[C@H]2OC(O)[C@H](O)[C@@H]2O)[C@@H](O)[C@H]1O (stereo partly drawn) [compound 1, ADPR] | 28 | – |
| Nc1ncnc2c1ncn2[C@@H]1O[C@H](COP(=O)(O)OP(=O)(O)OC[C@H]2OC(O)[C@H](O)[C@@H]2O)[C@@H](O)[C@H]1OP(=O)(O)O (stereo partly drawn) [compound 15, 2′-phospho-ADPR] | – | 110 |
| Nc1ncnc2c1ncn2[C@@H]1O[C@H](COP(=O)(O)OP(=O)(O)OC[C@H]2OC(O)[C@H](O)[C@@H]2O)C[C@H]1O (stereo partly drawn) [compound 17, 3′-deoxy-ADPR] | – | 46 |
